Data: patent US20080175794A1, “Substituted Pyridazinyl- and Pyrimidinyl-Quinolin-4-Ylamine Analogues” (NEUROGEN CORPORATION, priority 2005, published 2008)

Target: T1, human capsaicin receptor (Homo sapiens, UniProt Q8NER1)
T1 construct: expressed in transfected cells
Assay: Calcium mobilization assay, determination of antagonist activity (Example 6)
Assay type: cell-based
Conditions: Table III; assay provided in Example 6; cells expressing human capsaicin receptor, capsaicin at EC50
Experimental: A cDNA encoding full length human capsaicin receptor (SEQ ID NO:1, 2 or 3 of U.S. Pat. No. 6,482,611) is subcloned in the plasmid pBK-CMV (Stratagene, La Jolla, Calif.) for recombinant expression in mammalian cells.
Human embryonic kidney (HEK293) cells are transfected with the pBK-CMV expression construct encoding the full length human capsaicin receptor using standard methods. The transfected cells are selected over two weeks in media containing G418 (400 μg/ml) to obtain a pool of stably transfected cells. Independent clones are isolated from this pool by limiting dilution to obtain clonal stable cell lines for use in subsequent experiments.
Cells transfected with expression plasmids (as described in Example 4) and thereby expressing human capsaicin receptor are seeded and grown to 70-90% confluency in FALCON black-walled, clear-bottomed 96-well plates (#3904, BECTON-DICKINSON, Franklin Lakes, N.J.). The culture medium is emptied from the 96 well plates and FLUO-3 AM calcium sensitive dye (Molecular Probes, Eugene, Oreg.) is added to each well (dye solution: 1 mg FLUO-3 AM, 440 μL DMSO and 440 μl 20% pluronic acid in DMSO, diluted 1:250 in Krebs-Ringer HEPES (KRH) buffer (25 mM HEPES, […], 0.96 mM NaH2PO4, 1 mM MgSO4, 2 mM CaCl2, 5 mM glucose, 1 mM probenecid, pH 7.4), 50 μl diluted solution per well). Plates are covered with aluminum foil and incubated at 37° C. for 1-2 hours in an environment containing 5% CO2. After the incubation, the dye is emptied from the plates, and the cells are washed once with KRH buffer, and resuspended in KRH buffer.
To measure the ability of a test compound to agonize or antagonize a calcium mobilization response in cells expressing capsaicin receptors to capsaicin or other vanilloid agonist, the EC50 of the agonist capsaicin is first determined. An additional 20 μl of KRH buffer and 1 μl DMSO is added to each well of cells, prepared as described above. 100 μl capsaicin in KRH buffer is automatically transferred by the FLIPR instrument to each well. Capsaicin-induced calcium mobilization is monitored using either FLUOROSKAN ASCENT (Labsystems; Franklin, Mass.) or FLIPR (fluorometric imaging plate reader system; Molecular Devices, Sunnyvale, Calif.) instruments. Data obtained between 30 and 60 seconds after agonist application are used to generate an 8-point concentration response curve, with final capsaicin concentrations of 1 nM to 3 μM. KALEIDAGRAPH software (Synergy Software, Reading, Pa.) is used to fit the data to the equation: […]
Test compounds are dissolved in DMSO, diluted in 20 μl KRH buffer so that the final concentration of test compounds in the assay well is between […] and 5 μM, and added to cells prepared as described above. The 96 well plates containing prepared cells and test compounds are incubated in the dark at room temperature for 0.5 to 6 hours. It is important that the incubation not continue beyond 6 hours. Just prior to determining the fluorescence response, 100 μl capsaicin in KRH buffer at twice the EC50 concentration determined as described above is automatically added by the FLIPR instrument to each well of the 96 well plate for a final sample volume of 200 μl and a final capsaicin concentration equal to the EC50. The final concentration of test compounds in the assay wells is between 1 μM and 5 μM. […] The concentration of antagonist required to provide a 50% decrease, relative to the response observed in the presence of capsaicin and without antagonist, is the IC50 for the antagonist, and is preferably below 1 micromolar, 100 nanomolar, 10 nanomolar or 1 nanomolar.

T1 sequence (Q8NER1 whole entry): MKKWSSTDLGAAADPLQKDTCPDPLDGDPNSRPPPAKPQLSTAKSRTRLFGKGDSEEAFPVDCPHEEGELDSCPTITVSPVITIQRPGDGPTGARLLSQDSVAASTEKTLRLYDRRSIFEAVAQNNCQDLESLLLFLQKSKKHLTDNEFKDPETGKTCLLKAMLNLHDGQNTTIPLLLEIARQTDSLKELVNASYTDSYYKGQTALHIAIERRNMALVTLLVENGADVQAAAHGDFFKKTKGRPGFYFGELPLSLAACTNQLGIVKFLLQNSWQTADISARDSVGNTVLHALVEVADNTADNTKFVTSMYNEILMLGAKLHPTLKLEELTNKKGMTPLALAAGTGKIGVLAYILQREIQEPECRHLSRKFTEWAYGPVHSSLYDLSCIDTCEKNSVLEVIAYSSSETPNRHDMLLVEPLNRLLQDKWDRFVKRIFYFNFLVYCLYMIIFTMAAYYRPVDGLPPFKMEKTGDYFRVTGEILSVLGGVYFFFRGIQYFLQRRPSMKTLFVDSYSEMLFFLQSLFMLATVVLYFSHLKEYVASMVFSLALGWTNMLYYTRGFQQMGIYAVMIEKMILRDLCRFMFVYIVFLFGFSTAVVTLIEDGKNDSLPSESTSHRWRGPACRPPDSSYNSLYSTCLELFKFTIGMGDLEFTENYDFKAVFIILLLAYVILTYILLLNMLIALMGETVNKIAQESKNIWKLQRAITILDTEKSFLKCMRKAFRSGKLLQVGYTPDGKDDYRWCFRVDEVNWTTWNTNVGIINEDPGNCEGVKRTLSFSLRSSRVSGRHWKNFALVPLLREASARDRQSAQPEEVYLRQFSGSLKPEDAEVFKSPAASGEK

SMILES | IC50
CC(=O)c1cc(C(F)(F)F)c(-c2cnc3c(Nc4ccc(C(F)(F)F)cn4)ccnc3n2)nn1 [Compound 68, 1-[5-(trifluoromethyl)-6-(8-{[5-(trifluoromethyl)pyridin-2-yl]amino}pyrido[2,3-b]pyrazin-3-yl)pyridazin-3-yl]ethanone] | < 1 µM
CN1CCCC1CCNc1cc(C(F)(F)F)c(-c2cnc3c(Nc4ccc(C(F)(F)F)cn4)ccnc3n2)nn1 (stereo not shown) [Compound 72, 3-[6-{[2-(1-methylpyrrolidin-2-yl)ethyl]amino}-4-(trifluoromethyl)pyridazin-3-yl]-N-[5-(trifluoromethyl)pyridin-2-yl]pyrido[2,3-b]pyrazin-8-amine] | < 1 µM
CCN1CCCC1CNc1cc(C(F)(F)F)c(-c2cnc3c(Nc4ccc(C(F)(F)F)cn4)ccnc3n2)nn1 (stereo not shown) [Compound 76, 3-[6-{[(1-ethylpyrrolidin-2-yl)methyl]amino}-4-(trifluoromethyl)pyridazin-3-yl]-N-[5-(trifluoromethyl)pyridin-2-yl]pyrido[2,3-b]pyrazin-8-amine] | < 1 µM
FC(F)(F)c1ccc(Nc2ccnc3nc(-c4nnc(NCCCN5CCCC5)cc4C(F)(F)F)cnc23)nc1 [Compound 77, 3-{6-[(3-pyrrolidin-1-ylpropyl)amino]-4-(trifluoromethyl)pyridazin-3-yl}-N-[5-(trifluoromethyl)pyridin-2-yl]pyrido[2,3-b]pyrazin-8-amine] | < 1 µM
FC(F)(F)c1ccc(Nc2ccnc3nc(-c4nnc(NCc5cccnc5)cc4C(F)(F)F)cnc23)nc1 [Compound 78, 3-{6-[(pyridin-3-ylmethyl)amino]-4-(trifluoromethyl)pyridazin-3-yl}-N-[5-(trifluoromethyl)pyridin-2-yl]pyrido[2,3-b]pyrazin-8-amine] | < 1 µM
FC(F)(F)c1ccc(Nc2ccnc3nc(-c4nnc(NCc5ccccn5)cc4C(F)(F)F)cnc23)nc1 [Compound 80, 3-{6-[(pyridin-2-ylmethyl)amino]-4-(trifluoromethyl)pyridazin-3-yl}-N-[5-(trifluoromethyl)pyridin-2-yl]pyrido[2,3-b]pyrazin-8-amine] | < 1 µM
CN1CCN(CCCNc2cc(C(F)(F)F)c(-c3cnc4c(Nc5ccc(C(F)(F)F)cn5)ccnc4n3)nn2)CC1 [Compound 81, 3-[6-{[3-(4-methylpiperazin-1-yl)propyl]amino}-4-(trifluoromethyl)pyridazin-3-yl]-N-[5-(trifluoromethyl)pyridin-2-yl]pyrido[2,3-b]pyrazin-8-amine] | < 1 µM
CC(CN(C)C)Nc1cc(C(F)(F)F)c(-c2cnc3c(Nc4ccc(C(F)(F)F)cn4)ccnc3n2)nn1 (stereo not shown) [Compound 82, N1,N1-dimethyl-N2-[5-(trifluoromethyl)-6-(8-{[5-(trifluoromethyl)pyridin-2-yl]amino}pyrido[2,3-b]pyrazin-3-yl)pyridazin-3-yl]propane-1,2-diamine] | < 1 µM
FC(F)(F)c1ccc(Nc2ccnc3nc(-c4nnc(NCCCCN5CCCC5)cc4C(F)(F)F)cnc23)nc1 [Compound 84, 3-{6-[(4-pyrrolidin-1-ylbutyl)amino]-4-(trifluoromethyl)pyridazin-3-yl}-N-[5-(trifluoromethyl)pyridin-2-yl]pyrido[2,3-b]pyrazin-8-amine] | < 1 µM
C=CCN1CCN(c2cc(C(F)(F)F)c(-c3cnc4c(Nc5ccc(C(F)(F)F)cn5)ccnc4n3)nn2)CC1 [Compound 86, 3-[6-(4-allylpiperazin-1-yl)-4-(trifluoromethyl)pyridazin-3-yl]-N-[5-(trifluoromethyl)pyridin-2-yl]pyrido[2,3-b]pyrazin-8-amine] | < 1 µM
CCN1CCN(c2cc(C(F)(F)F)c(-c3cnc4c(Nc5ccc(C(F)(F)F)cn5)ccnc4n3)nn2)CC1 [Compound 88, 3-[6-(4-ethylpiperazin-1-yl)-4-(trifluoromethyl)pyridazin-3-yl]-N-[5-(trifluoromethyl)pyridin-2-yl]pyrido[2,3-b]pyrazin-8-amine] | < 1 µM
CCN(CCN(C)C)c1cc(C(F)(F)F)c(-c2cnc3c(Nc4ccc(C(F)(F)F)cn4)ccnc3n2)nn1 [Compound 94, N-ethyl-N′,N′-dimethyl-N-[5-(trifluoromethyl)-6-(8-{[5-(trifluoromethyl)pyridin-2-yl]amino}pyrido[2,3-b]pyrazin-3-yl)pyridazin-3-yl]ethane-1,2-diamine] | < 1 µM
CN(C)C1CCN(c2cc(C(F)(F)F)c(-c3cnc4c(Nc5ccc(C(F)(F)F)cn5)ccnc4n3)nn2)CC1 [Compound 96, 3-{6-[4-(dimethylamino)piperidin-1-yl]-4-(trifluoromethyl)pyridazin-3-yl}-N-[5-(trifluoromethyl)pyridin-2-yl]pyrido[2,3-b]pyrazin-8-amine] | < 1 µM
CN1CCC(N(C)c2cc(C(F)(F)F)c(-c3cnc4c(Nc5ccc(C(F)(F)F)cn5)ccnc4n3)nn2)C1 (stereo not shown) [Compound 97, 3-{6-[methyl(1-methylpyrrolidin-3-yl)amino]-4-(trifluoromethyl)pyridazin-3-yl}-N-[5-(trifluoromethyl)pyridin-2-yl]pyrido[2,3-b]pyrazin-8-amine] | < 1 µM
CNc1cc(C(F)(F)F)c(-c2cnc3c(Nc4ccc(C(F)(F)F)cn4)ccnc3n2)nn1 [Compound 100, 3-[6-(methylamino)-4-(trifluoromethyl)pyridazin-3-yl]-N-[5-(trifluoromethyl)pyridin-2-yl]pyrido[2,3-b]pyrazin-8-amine] | < 1 µM

Results, then the compound that gave them:

IC50 | SMILES
< 1 µM | CN(C)CCNc1cc(C(F)(F)F)c(-c2cnc3c(Nc4ccc(C(F)(F)F)cn4)ccnc3n2)nn1 [Compound 69, N,N-dimethyl-N′-[5-(trifluoromethyl)-6-(8-{[5-(trifluoromethyl)pyridin-2-yl]amino}pyrido[2,3-b]pyrazin-3-yl)pyridazin-3-yl]ethane-1,2-diamine]
< 1 µM | CCN(CC)CCNc1cc(C(F)(F)F)c(-c2cnc3c(Nc4ccc(C(F)(F)F)cn4)ccnc3n2)nn1 [Compound 70, N,N-diethyl-N′-[5-(trifluoromethyl)-6-(8-{[5-(trifluoromethyl)pyridin-2-yl]amino}pyrido[2,3-b]pyrazin-3-yl)pyridazin-3-yl]ethane-1,2-diamine]
< 1 µM | CCN(CC)CCCNc1cc(C(F)(F)F)c(-c2cnc3c(Nc4ccc(C(F)(F)F)cn4)ccnc3n2)nn1 [Compound 73, N,N-diethyl-N′-[5-(trifluoromethyl)-6-(8-{[5-(trifluoromethyl)pyridin-2-yl]amino}pyrido[2,3-b]pyrazin-3-yl)pyridazin-3-yl]propane-1,3-diamine]
< 1 µM | CCCN(CCC)CCNc1cc(C(F)(F)F)c(-c2cnc3c(Nc4ccc(C(F)(F)F)cn4)ccnc3n2)nn1 [Compound 83, N,N-dipropyl-N′-[5-(trifluoromethyl)-6-(8-{[5-(trifluoromethyl)pyridin-2-yl]amino}pyrido[2,3-b]pyrazin-3-yl)pyridazin-3-yl]ethane-1,2-diamine]
< 1 µM | CCN(CC)CCN(CC)c1cc(C(F)(F)F)c(-c2cnc3c(Nc4ccc(C(F)(F)F)cn4)ccnc3n2)nn1 [Compound 99, N,N,N′-triethyl-N′-[5-(trifluoromethyl)-6-(8-{[5-(trifluoromethyl)pyridin-2-yl]amino}pyrido[2,3-b]pyrazin-3-yl)pyridazin-3-yl]ethane-1,2-diamine]
< 1 µM | CCNc1cc(C(F)(F)F)c(-c2cnc3c(Nc4ccc(C(F)(F)F)cn4)ccnc3n2)nn1 [Compound 101, 3-[6-(ethylamino)-4-(trifluoromethyl)pyridazin-3-yl]-N-[5-(trifluoromethyl)pyridin-2-yl]pyrido[2,3-b]pyrazin-8-amine]
< 1 µM | CCCNc1cc(C(F)(F)F)c(-c2cnc3c(Nc4ccc(C(F)(F)F)cn4)ccnc3n2)nn1 [Compound 102, 3-[6-(propylamino)-4-(trifluoromethyl)pyridazin-3-yl]-N-[5-(trifluoromethyl)pyridin-2-yl]pyrido[2,3-b]pyrazin-8-amine]
